Measurements as given in patent US11576979B2, “Pyrrolobenzodiazepine prodrugs and antibody conjugates thereof” (GENENTECH, INC., priority 2016, dated 2023).

What was measured:
SK-BR-3 = test: CellTiter-Glo toxicity, 3 days (Example 7); assay type: cell-based; settings: Homo sapiens, SK-BR-3, 72 h; 3 days; read-out: SK-BR-3 IC50
Method in brief: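 HER2-positive breast cancer cells seeded at 7,500 per well, then exposed next day to a 1:3 serial dilution of compounds in DMEM+10% FBS with 2 mM L-glutamine at 37 Celsius for 3 days. Viability read by CellTiter-Glo luminescence.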

[1] = test system: MDA-MB-453 tumor cell line; test: in vitro tumor cell killing assay, 3 days (Example 13); assay type: cell-based; settings: Homo sapiens, 72 h; MDA-MB-453; 3 days; read-out: EC50
Experimental: The toxicity of various PBD monomer and dimer boronic acid prodrug compounds were evaluated for cell toxicity. In the in vitro tumor cell killing assay, the cells were added to each well of 96-well microtiter plates at 8,000 cells per well and were incubated overnight at 37° C. in a humidified atmosphere of 5% CO2. The cells were exposed to various concentration of the indicated prodrug, positive control and negative control compounds. Where silvestrol was evaluated, a 1:3 serial dilution was used. After incubation for 3 days, Cell titer-Glo reagent (Promega, Madison Wis.) was added to the wells at 100 μL per well followed by a 10-minute incubation at room temperature, and the luminescent signal was measured using a Packard/Perkin-Elmer TopCount.
The toxicity of PBD monomer boronic acid prodrug 1 was evaluated against MDA-MB-453 tumor cell line for cell viability. PBD monomer control 1 was used as a positive control and PBD monomer control 2 was used as a negative control. The toxicity study was repeated wherein the PBD prodrug and controls were administered in combination with silvestrol. FIG. 15C depicts a plot of MDA-MB-453 cell kill versus drug concentration in μM three days after exposure to: (i) a PBD monomer control; (ii) a PBD monomer control having a benzyl formate moiety at the N10 PBD position; and (iii) a PBD monomer boronic acid prodrug. […]

In the case of `C=C1C[C@H]2C=Nc3cc(OC)c(OC)cc3C(=O)N2C1` [PBD monomer control 1, reference compound], the IC50 (SK-BR-3) is reported as 0.124 µM and the EC50 [1] is reported as 0.164 µM.
